{"source": "patent US20100056636A1", "about": "“N-Substituted-P-Menthane-3-Carboxamide and Uses Thereof” (priority 2006, published 2010)", "key": {"small group of panelists": {"test_system": "small group of panelists", "assay": "Panel tasting of aqueous solutions: cooling intensity matched to a solution of menthol at 2 ppm", "type": "in vivo, human", "settings": "tasted"}, "panel of flavourists": {"test_system": "panel of flavourists", "assay": "Comparative sensorial evaluation: aqueous solutions tasted by a panel of flavourists", "type": "in vivo, human", "experimental": "Four aqueous solutions were prepared: A. […] 20 ppm WS-3 dissolved in solution A; and D. 2 ppm WS-3 dissolved in solution A. These solutions were tasted and evaluated by a panel of flavourists. […]"}, "[1]": {"test_system": "panel of experienced flavourists", "assay": "Hard boiled sweets containing cold receptor stimulant, evaluated by a panel of experienced flavourists", "type": "in vivo, human", "settings": "for strength of products A, B and C relative to each other: hard boiled sweets: A 50 ppm WS-3, B 5 ppm example 1, C 2.5 ppm example 2", "experimental": "The sweets were prepared according to the following procedure. Sugar, water and glucose syrup are mixed and boiled till 146° C. The mix is cooled to 120° C., the cold receptor stimulant is added and carefully mixed in. The mix is poured on a cooling table and folded in and molded on a roller.\nThe sweets prepared were evaluated by a panel of experienced flavourists."}, "[2]": {"settings": "cited from earlier work"}}, "data": [{"molecule": "N-(3,4-dimethylphenethyl)-2-isopropyl-5-ethylcyclo-hexanecarboxamide [Example 7]", "values": [{"measurement": "Concentration with cooling intensity similar to or slightly higher than that of a solution of menthol at 2 ppm", "setting": "small group of panelists", "value": 0.002, "unit": "ppm"}]}, {"molecule": "CC1CCC(C(C)C)C(C(=O)NCCc2ccccc2)C1", "note": "(stereo not shown) [Example 2, 2-isopropyl-5-methyl-cyclohexanecarboxylic acid phenylethyl-amide]", "values": [{"measurement": "sensory description of solution", "setting": "panel of flavourists; Example 4, solution B: 1 ppm product of example 2 dissolved in 20 ppm menthol aqueous solution", "value": "“cold perception with a pain sensation”, “aggressive, long-lasting cooling”, “almost noxious cold”, “slightly tingling”"}, {"measurement": "strength of solution B relative to solution D", "setting": "panel of flavourists; Example 4: 1 ppm product of example 2 versus 2 ppm WS-3, both in 20 ppm menthol solution", "value": "much stronger"}, {"measurement": "strength of solution B relative to solution C", "setting": "panel of flavourists; Example 4: 1 ppm product of example 2 versus 20 ppm WS-3, both in 20 ppm menthol solution", "value": "comparable strength"}, {"measurement": "sensory description of hard boiled sweet", "setting": "[1]; Product C: 2.5 ppm product prepared in example 2", "value": "“slow release cooling”, “giving a cold effect in the whole mouth”, “tingling pain sensation enhancing the cooling effect and “very longlasting”"}, {"measurement": "strength of products A, B and C relative to each other", "setting": "[1]", "value": "comparable"}, {"measurement": "Concentration with cooling intensity similar to or slightly higher than that of a solution of menthol at 2 ppm", "setting": "small group of panelists", "value": 0.2, "unit": "ppm"}]}, {"molecule": "Ethyl 3-(p-menthane-3-carboxamido)acetate [WS-5]", "values": [{"measurement": "coolness relative to WS-3", "setting": "[2]; known", "value": "significantly cooler than WS-3"}]}, {"molecule": "CCOc1ccccc1CCNC(=O)C1CC(C)CCC1C(C)C", "note": "(stereo not shown) [Example 5, N-(2-ethoxyphenethyl)-2-isopropyl-5-methylcyclohexane-carboxamide]", "values": [{"measurement": "Concentration with cooling intensity similar to or slightly higher than that of a solution of menthol at 2 ppm", "setting": "small group of panelists", "value": 0.002, "unit": "ppm"}]}, {"molecule": "CC1CCC(C(C)C)C(C(=O)NCC(O)c2ccccc2)C1", "note": "(stereo not shown) [Example 1, 2-isopropyl-5-methyl-cyclohexanecarboxylic acid (2-hydroxy-2-phenylethyl)-amide]", "values": [{"measurement": "sensory description of solution", "setting": "panel of flavourists; Example 3, solution B: 2 ppm product of example 1 dissolved in 20 ppm menthol aqueous solution", "value": "“high initial cooling burst”, “long-lasting cooling”, “cold perception in whole mouth”, “some hotness”"}, {"measurement": "strength of solution B relative to solution D", "setting": "panel of flavourists; Example 3: 2 ppm product of example 1 versus 2 ppm WS-3, both in 20 ppm menthol solution", "value": "much stronger"}, {"measurement": "strength of solution B relative to solution C", "setting": "panel of flavourists; Example 3: 2 ppm product of example 1 versus 20 ppm WS-3, both in 20 ppm menthol solution", "value": "comparable strength"}, {"measurement": "location of effect and aftertaste", "setting": "[1]; Product B: 5 ppm product prepared in example 1", "value": "in the whole mouth and has a tingling-cool aftertaste"}, {"measurement": "sensory description of hard boiled sweet", "setting": "[1]; Product B: 5 ppm product prepared in example 1, A = 50 ppm WS-3", "value": "“giving a cold sensation which is not irritating” and “much more longlasting than A”"}, {"measurement": "strength of products A, B and C relative to each other", "setting": "[1]", "value": "comparable"}, {"measurement": "Concentration with cooling intensity similar to or slightly higher than that of a solution of menthol at 2 ppm", "setting": "small group of panelists", "value": 0.005, "unit": "ppm"}]}, {"molecule": "Ethyl 3-(p-menthane-3-carboxamido)acetate [(1R,3R,4S)-WS-5]", "values": [{"measurement": "perceived cooling relative to WS-3", "setting": "[2]; reported in US Patent Application No. 20050222256", "value": "2.5-3.0 times"}]}, {"molecule": "CCNC(=O)C1CC(C)CCC1C(C)C", "note": "(stereo not shown) [WS-3, N-Ethyl-p-menthane-3-carboxamide, reference compound]", "values": [{"measurement": "sensory description of solution, compared with solution B", "setting": "panel of flavourists; Example 3, solution C: 20 ppm WS-3 in 20 ppm menthol solution, B = 2 ppm product of example 1 in 20 ppm menthol", "value": "“more neutral cold perception than B”, “less aggressive cooling than B”, “less long-lasting cooling than B”"}, {"measurement": "sensory description of solution, compared with solution B", "setting": "panel of flavourists; Example 3, solution D: 2 ppm WS-3 in 20 ppm menthol solution, B = 2 ppm product of example 1 in 20 ppm menthol", "value": "“more neutral cold perception than B”, “less aggressive cooling than B”, “less long-lasting cooling than B”"}, {"measurement": "sensory description of solution, compared with solution B", "setting": "panel of flavourists; Example 4, solution C: 20 ppm WS-3 in 20 ppm menthol solution, B = 1 ppm product of example 2 in 20 ppm menthol", "value": "“more neutral cold perception than B”, “less aggressive cooling than B”, “less long-lasting cooling than B”"}, {"measurement": "sensory description of solution, compared with solution B", "setting": "panel of flavourists; Example 4, solution D: 2 ppm WS-3 in 20 ppm menthol solution, B = 1 ppm product of example 2 in 20 ppm menthol", "value": "“more neutral cold perception than B”, “less aggressive cooling than B”, “less long-lasting cooling than B”"}, {"measurement": "sensory description of hard boiled sweet", "setting": "[1]; Product A (control): 50 ppm WS-3", "value": "“giving coolness and a cold perception” and “having an immediate cooling effect” and “not longlasting”"}, {"measurement": "feeling in the throat", "setting": "[1]; Product A: hard boiled sweet, dosage of 50 ppm WS-3", "value": "irritating feeling in the throat"}, {"measurement": "strength of products A, B and C relative to each other", "setting": "[1]", "value": "comparable"}, {"measurement": "Concentration with cooling intensity similar to or slightly higher than that of a solution of menthol at 2 ppm", "setting": "small group of panelists", "value": 1.5, "unit": "ppm"}]}, {"molecule": "CC1CCC(C(C)C)C(O)C1", "note": "(stereo not shown) [menthol, reference compound]", "values": [{"measurement": "sensory description of solution", "setting": "panel of flavourists; solution A: 20 ppm menthol in water", "value": "“cooling”"}, {"measurement": "Concentration with cooling intensity similar to or slightly higher than that of a solution of menthol at 2 ppm", "setting": "small group of panelists", "value": 2.0, "unit": "ppm"}]}, {"molecule": "CC1CCC(C(C)C)C(C(=O)N[C@H]2C[C@H]2c2ccccc2)C1", "note": "(stereo partly drawn) [Example 6, 2-isopropyl-5-methyl-N-((1S,2S)-2-phenylcyclopropyl)-cyclohexanecarboxamide]", "values": [{"measurement": "Concentration with cooling intensity similar to or slightly higher than that of a solution of menthol at 2 ppm", "setting": "small group of panelists", "value": 0.1, "unit": "ppm"}]}]}
